# Test results from ChEMBL document CHEMBL3507680, “University of Dundee, Gates Library screen for HepG2 cell viability”.
# Assay: Human HepG2 cell viability assay in 384 well format
# Format: toxicity, cell-based
# Parameters: dose 125 nL, time 70.5 hour; concentration not given beside the values
# Conditions: HepG2 cells, read-out: Inhibition
structure (smiles),measurement,value
Cn1cccc1C(=O)NCc1cnc2n1CCN(CC1CCOCC1)C2,cytotoxicity at 70.5 h,-3.17%
COc1cccc2c1OCCCN(Cc1c[nH]nc1C(=O)O)C2,cytotoxicity at 70.5 h,-9%
Cn1cccc1CN1CCC2(CC1)CN(c1ncccn1)CCO2,cytotoxicity at 70.5 h,1.85%
Cn1nc(C(=O)N2CCC(Oc3ccc(C#N)cn3)CC2)ccc1=O,cytotoxicity at 70.5 h,-11%
CCN1CCc2nc(N3CCOCC3)nc(NC(C)C)c2C1,cytotoxicity at 70.5 h,-9.45%
CCOCCN1CCN(c2ccc(C#N)cn2)CC1CC (stereo not given),cytotoxicity at 70.5 h,1.12%
OC(CN1CCCc2cc(OC(F)F)ccc21)Cn1cccn1 (stereo not given),cytotoxicity at 70.5 h,12.9%
CS(=O)(=O)c1ccc(-c2cc(O)cc(CCC3CCCCN3)c2)cc1 (stereo not given),cytotoxicity at 70.5 h,-7.28%
O=C(COCC(F)(F)F)NC1CCCc2cc(OC(F)F)ccc21 (stereo not given),cytotoxicity at 70.5 h,-6.74%
COCCn1ccc(NC(=O)CNC(=O)CC(C)(C)C)n1,cytotoxicity at 70.5 h,27.5%
CCOc1cc(C)nc(N2CCN(C(=O)CN(C)C3CC3)CC2)n1,cytotoxicity at 70.5 h,-9.22%
O=C(CCC1CCCC1)N1CCCC(c2ncc3c(n2)CCNC3)C1 (stereo not given),cytotoxicity at 70.5 h,-1.37%
CCOc1cc(CNCc2cnc(C)cn2)c(Cl)cc1OC(C)C,cytotoxicity at 70.5 h,3.1%
Cc1cccc(C(=O)NC(C)CN2CCCC2=O)n1 (stereo not given),cytotoxicity at 70.5 h,21%
COCCN(C)c1ccc(NCc2ccsc2)nc1,cytotoxicity at 70.5 h,-10.2%
Cc1cccc(CNC(=O)N(CCCO)C2CCc3ccccc32)n1 (stereo not given),cytotoxicity at 70.5 h,-1.88%
CN(C)c1ncccc1CNc1cc(N2CCCC2CO)ncn1 (stereo not given),cytotoxicity at 70.5 h,10.5%
CCc1nc(CN2CCCC2c2c(C)nn(C)c2OC)no1 (stereo not given),cytotoxicity at 70.5 h,-3.81%
COc1cc(OC)cc(C(=O)Nc2ncnc3c2CCC3)c1,cytotoxicity at 70.5 h,59%
Clc1ccc(OCCN2CCN(CCn3cncn3)CC2)cc1,cytotoxicity at 70.5 h,13.2%
CN1CCc2ccc(NCc3cscn3)cc2C1=O,cytotoxicity at 70.5 h,2.5%
CCOc1cc(=O)n2c(c1C(=O)OCc1ccc(OC)cc1)CCCC2,cytotoxicity at 70.5 h,-14.9%
O=C(CCc1ccc(Br)cc1)NCCc1nnc[nH]1,cytotoxicity at 70.5 h,-11.9%
Cn1c2c(c(=O)n1C)CN(C(=O)c1ccncc1F)CCC2,cytotoxicity at 70.5 h,5.23%
Cc1n[nH]c(C)c1CCC(=O)NCC1CCOc2ccccc2C1 (stereo not given),cytotoxicity at 70.5 h,12.2%
CC(C)N1CCN(C(=O)c2[nH]nnc2Nc2ccccc2F)CC1,cytotoxicity at 70.5 h,16.4%
Cc1ncc(CC(=O)N2CCCC(COc3ccccc3F)C2)c(=O)[nH]1 (stereo not given),cytotoxicity at 70.5 h,-9.07%
Cc1cc(C)n(C2CN(CC(O)COc3ccc(F)cc3)C2)n1 (stereo not given),cytotoxicity at 70.5 h,-16.7%
O=C(CN1CCCCC1Cn1cncn1)NCCC1=CCCCC1 (stereo not given),cytotoxicity at 70.5 h,32%
O=C1CCC(=O)N1CCN1CCC(=Cc2ccccc2)CC1,cytotoxicity at 70.5 h,-0.346%
CN(C)CCO[C@H]1C[C@@H](O)C12CCN(c1nccc3ccccc13)CC2,cytotoxicity at 70.5 h,-10.3%
COCCN(C(=O)c1nc(-c2ccco2)sc1C)C1CC1,cytotoxicity at 70.5 h,-2.88%
COCCn1ccnc1C1CCCN(c2ncnc3c2CCC3)C1 (stereo not given),cytotoxicity at 70.5 h,-0.0473%
CC(C)N1CCC(NC(=O)c2cn(-c3ccc(F)cc3)nn2)C1 (stereo not given),cytotoxicity at 70.5 h,-16.5%
Cc1ccc(Sc2ccc(CN3CCC4(CCCNC4=O)C3)o2)cc1 (stereo not given),cytotoxicity at 70.5 h,5.69%
O=C(c1ccc(-c2ccsc2)nc1)N1CCCN(C2CCCCC2)CC1,cytotoxicity at 70.5 h,17%
CCC1CCC(NCCN2CCOCC2)CC1 (stereo not given),cytotoxicity at 70.5 h,-6.57%
CCn1ccnc1CN1CCCN(C(=O)c2csc(C)n2)CC1,cytotoxicity at 70.5 h,-5.02%
Cc1nc(-c2cccc(N3CCC(N4CCCC(C#N)C4)CC3)c2)cs1 (stereo not given),cytotoxicity at 70.5 h,22.1%
FC(F)(F)c1ccc(-c2cc(NC3CCNCC3)nc3[nH]ccc23)nc1,cytotoxicity at 70.5 h,-7.67%
COc1ccc(C2CCN(Cc3cscn3)CC2)cc1,cytotoxicity at 70.5 h,0.308%
O=C(CC1CCCC1)N1CCN(c2ccc(-n3cncn3)nn2)CC1,cytotoxicity at 70.5 h,-7.71%
COCCC1COC2(CCN(C(=O)c3cccnc3)CC2)C1 (stereo not given),cytotoxicity at 70.5 h,-13%
CCOCC1CN(CC2CC2)Cc2nn(C)cc21 (stereo not given),cytotoxicity at 70.5 h,-4.39%
CCn1nc(C)c(NC(=O)CN2CC[C@@H](F)C2)c1C,cytotoxicity at 70.5 h,-4.28%
CCS(=O)(=O)N[C@@H]1CN(Cc2cc(C)on2)C[C@@H]2CCCO[C@@H]21,cytotoxicity at 70.5 h,-10.1%
CCOc1cccc(CCNC(=O)Cc2ccccc2O)n1,cytotoxicity at 70.5 h,-14.9%
CC1CCN(C(=O)CN2CCC(c3n[nH]c(C4CC4)n3)CC2)CC1,cytotoxicity at 70.5 h,-1.53%
O=C1COC2(CCN(C(=O)c3ccoc3)CC2)CN1Cc1ccccn1,cytotoxicity at 70.5 h,-0.827%
CCn1nc2c(cc1=O)CN(Cc1nc(CCOC)no1)CC2,cytotoxicity at 70.5 h,-16%
Cc1nc(-c2cnn(C)c2)nc2c1CN(C(=O)c1cccnc1)CC2,cytotoxicity at 70.5 h,-2.03%
CCCC(=O)N1CCc2c(CNS(C)(=O)=O)cncc2C1,cytotoxicity at 70.5 h,-8.58%
CN(Cc1cccnc1)CC1(O)CCCN(CC(C)(C)C)C1=O (stereo not given),cytotoxicity at 70.5 h,-2.66%
CCNC(=O)c1cnc(Sc2nccn2C)c(Cl)c1,cytotoxicity at 70.5 h,-2.03%
CNC(=O)CNCC1(O)CCCN(Cc2ccc(F)c(F)c2)C1=O (stereo not given),cytotoxicity at 70.5 h,29%
Fc1cccnc1O[C@@H]1CN(Cc2ccco2)[C@@H]2CCCO[C@@H]21,cytotoxicity at 70.5 h,-12.4%
CN1CCC(Cc2cc(N(C)C)ncn2)C1 (stereo not given),cytotoxicity at 70.5 h,5.25%
Cc1cnc(CC2COCCN(C(=O)CN3CCCCC3)C2)cn1 (stereo not given),cytotoxicity at 70.5 h,-2.32%
O=c1ccc2c(n1Cc1ccncc1)CCN(C1CCOC1)CC2 (stereo not given),cytotoxicity at 70.5 h,0.608%
Cc1cccc(C(=O)N2CCC[C@]3(C[C@@H](OCC4CC4)CO3)C2)n1,cytotoxicity at 70.5 h,-13.9%
COc1ccc(CNC[C@H]2COCc3nc4cccnc4n32)cn1,cytotoxicity at 70.5 h,-6.49%
CC(C)Sc1nnc(CCNC(=O)OC(C)(C)C)o1,cytotoxicity at 70.5 h,26.1%
CC(CNC(=O)c1ccc(F)cc1I)N1CCCC1 (stereo not given),cytotoxicity at 70.5 h,22%
CC(=O)N[C@@H]1CN(C(=O)c2cccc(C(F)(F)F)c2)C[C@H]1O,cytotoxicity at 70.5 h,-4.74%
O=C(CNc1cc(-n2cnnn2)ccc1F)Nc1ccccc1Cl,cytotoxicity at 70.5 h,-114%
Cn1cc(-c2nc(CN3CCn4c(nnc4C4CC4)C3)cs2)cn1,cytotoxicity at 70.5 h,-4.85%
c1cnn(CCC2CCN(Cc3ccc4[nH]ccc4c3)CC2)c1,cytotoxicity at 70.5 h,0.43%
CCC(C)NC(=O)CS(=O)(=O)Cc1ccccc1Cl (stereo not given),cytotoxicity at 70.5 h,-7.35%
O=C(Cc1ccncc1)N(CCO)CCSc1ccc(Cl)cc1,cytotoxicity at 70.5 h,-12.1%
CC(NCc1cccn1C)c1noc(-c2ccc(Cl)cc2)n1 (stereo not given),cytotoxicity at 70.5 h,-9.95%
COc1cccc2c(=O)n(Cc3cccnc3)cnc12,cytotoxicity at 70.5 h,-6.26%
CCn1nnc2c1C(COCCN(C)C)CN(Cc1ccc(C)s1)C2 (stereo not given),cytotoxicity at 70.5 h,3.05%
CCOCC1CN(C(=O)c2ccco2)Cc2cnn(CC)c21 (stereo not given),cytotoxicity at 70.5 h,12.3%
N#CC1CCCN(c2ncnc3c2CCN(Cc2ccccc2)CC3)C1 (stereo not given),cytotoxicity at 70.5 h,2.53%
O=S(=O)(NCCn1ccc(-c2ccccn2)n1)C1CC1,cytotoxicity at 70.5 h,-0.0974%
COCCN1CCN(C(=O)c2ccc(COC)o2)[C@H]2CS(=O)(=O)C[C@H]21,cytotoxicity at 70.5 h,11.2%
CCCc1nnc(N2CCN(c3cccc(C)c3C)CC2)o1,cytotoxicity at 70.5 h,-14.8%
Cc1ncccc1OC1(C(=O)NCCc2ccccn2)CCNCC1,cytotoxicity at 70.5 h,13.7%
O=C1CO[C@@H]2CN(Cc3ccsc3)C[C@H]2N1Cc1ccncc1,cytotoxicity at 70.5 h,13.6%
Cc1noc(C)c1CN(C)C(=O)c1ccc(C(F)(F)F)nc1,cytotoxicity at 70.5 h,-0.00923%
O=C(N1CCCC1)N1CCc2onc(COc3cccnc3)c2C1,cytotoxicity at 70.5 h,-3.27%
OC(CNCCn1cccn1)c1ccc(C(F)(F)F)cc1 (stereo not given),cytotoxicity at 70.5 h,-4.94%
O=C(Nc1ccccc1Cl)N1CCN(CC2CC2)[C@@H]2CS(=O)(=O)C[C@@H]21,cytotoxicity at 70.5 h,16.8%
O=C(c1cnccn1)N1CC[C@H]2C[C@@H](c3ccncn3)O[C@@H]2C1,cytotoxicity at 70.5 h,-11.7%
O=C1NCC2(CCCN(c3ncnc4c3CCC4)CC2)O1 (stereo not given),cytotoxicity at 70.5 h,2.31%
O=C(NCc1cccnc1)NC1CCCN(c2ncccn2)C1 (stereo not given),cytotoxicity at 70.5 h,-10.3%
Cn1nccc1C(=O)N1CCC(c2ncc(Cl)cc2S(C)(=O)=O)CC1,cytotoxicity at 70.5 h,18.3%
CS(=O)(=O)Nc1ccc([C@H]2OCC(=O)N[C@@H]2CO)cc1,cytotoxicity at 70.5 h,2.21%
Cc1nc(NC(=O)N(C)Cc2ccoc2)nn1C,cytotoxicity at 70.5 h,-4.45%
CSc1ncccc1C(=O)N1C[C@H]2CC[C@@H]1CN(c1ncccn1)C2,cytotoxicity at 70.5 h,-10.3%
Cc1ccc(S(=O)(=O)Nc2c(C)nn(C)c2C)cc1C,cytotoxicity at 70.5 h,-5.46%
CN(Cc1ccco1)[C@@H]1CN(C(=O)c2ccnnc2)C[C@@H]2CCCO[C@@H]21,cytotoxicity at 70.5 h,-7.61%
Cc1cccc(-n2ncc(C(=O)N3CCn4c(C)nnc4C3)c2C)c1,cytotoxicity at 70.5 h,-10.4%
Cc1ccc(OC[C@@H]2CNC[C@H](C(=O)NCC3CCCO3)C2)cn1 (stereo not given in full),cytotoxicity at 70.5 h,-1.9%
COc1ccccc1N1CCN(C(=O)c2ccnc(N(C)C)c2)CC1,cytotoxicity at 70.5 h,36.2%
CCc1cc(=O)n(CC(=O)N2CCCC2)c(-c2ccccc2)n1,cytotoxicity at 70.5 h,-5.29%
COc1cccc(C2CCCN2CCCNS(C)(=O)=O)c1 (stereo not given),cytotoxicity at 70.5 h,-12.4%
CC(Cn1cccn1)NC(=O)NCc1ccc(OC2CCCC2)nc1 (stereo not given),cytotoxicity at 70.5 h,19.5%
Cn1ncc2c(=O)[nH]c(CN3CCCC3CC(C)(C)C)nc21 (stereo not given),cytotoxicity at 70.5 h,-4%
CCCN(CC(=O)N(C)C)C(=O)c1ccc(-c2nc(C)cs2)cc1,cytotoxicity at 70.5 h,-6.25%
CCC(CC)C(=O)N1CCC2(CC1)c1ccccc1[C@@H](OC)[C@@H]2O,cytotoxicity at 70.5 h,-8.24%
CC(NC1(CNC(=O)Cn2cccn2)CCOCC1)c1ccccc1 (stereo not given),cytotoxicity at 70.5 h,-6.45%
COc1ccnc(N2CCc3ccc(OC(F)F)cc3C2)n1,cytotoxicity at 70.5 h,-2.84%
CCOC(=O)c1nnc2ccccc2c1N1CCN(C(C)C)CC1,cytotoxicity at 70.5 h,-4.21%
CC(C)c1nc(CN2CCCC(Cn3cncn3)C2)cs1 (stereo not given),cytotoxicity at 70.5 h,29.1%
CC(=O)N1CCOCC2(CN(Cc3ccccn3)CCO2)C1 (stereo not given),cytotoxicity at 70.5 h,-9.92%
COc1ccc(CCC(=O)N(C)CCN2CCOCC2)cc1OC,cytotoxicity at 70.5 h,-7.02%
CCN1CC2(CC1=O)CN(C(=O)NC(C)C)CCN(C(=O)NC(C)C)C2,cytotoxicity at 70.5 h,-4.47%
Cc1ccccc1N1CCN(C(=O)CC(C)C)CC1,cytotoxicity at 70.5 h,0.0324%
COc1nn(C)c2c1CCCN(C(=O)c1ccccc1)C2,cytotoxicity at 70.5 h,-5.54%
O=S(=O)(NC1CC1)c1cccc(Br)c1,cytotoxicity at 70.5 h,3.01%
COc1cccc(CNCc2ccc(F)c(Cl)c2)c1O,cytotoxicity at 70.5 h,27%
COC1CCN(C(=O)c2csc(-c3ccccc3F)n2)CC1,cytotoxicity at 70.5 h,-4.85%
Cc1cccc(CN(C(=O)NCc2ccccn2)C2CC2)c1,cytotoxicity at 70.5 h,-8.28%
Cc1cccc(S(=O)(=O)NCC2CCN(c3cnccn3)CC2)c1,cytotoxicity at 70.5 h,-10.1%
